For the assay, the target named is CDC7/DBF4 (Cell division cycle 7-related protein kinase/Activator of S phase kinase) (Homo sapiens, UniProt O00311). The assay is described as follows: Inhibition of CDC7/DBF4 using MCM-2 as substrate after 1 hr. The format is protein-complex assay.
Sequence of CDC7/DBF4 (Cell division cycle 7-related protein kinase/Activator of S phase kinase) (Q9UBU7 whole entry): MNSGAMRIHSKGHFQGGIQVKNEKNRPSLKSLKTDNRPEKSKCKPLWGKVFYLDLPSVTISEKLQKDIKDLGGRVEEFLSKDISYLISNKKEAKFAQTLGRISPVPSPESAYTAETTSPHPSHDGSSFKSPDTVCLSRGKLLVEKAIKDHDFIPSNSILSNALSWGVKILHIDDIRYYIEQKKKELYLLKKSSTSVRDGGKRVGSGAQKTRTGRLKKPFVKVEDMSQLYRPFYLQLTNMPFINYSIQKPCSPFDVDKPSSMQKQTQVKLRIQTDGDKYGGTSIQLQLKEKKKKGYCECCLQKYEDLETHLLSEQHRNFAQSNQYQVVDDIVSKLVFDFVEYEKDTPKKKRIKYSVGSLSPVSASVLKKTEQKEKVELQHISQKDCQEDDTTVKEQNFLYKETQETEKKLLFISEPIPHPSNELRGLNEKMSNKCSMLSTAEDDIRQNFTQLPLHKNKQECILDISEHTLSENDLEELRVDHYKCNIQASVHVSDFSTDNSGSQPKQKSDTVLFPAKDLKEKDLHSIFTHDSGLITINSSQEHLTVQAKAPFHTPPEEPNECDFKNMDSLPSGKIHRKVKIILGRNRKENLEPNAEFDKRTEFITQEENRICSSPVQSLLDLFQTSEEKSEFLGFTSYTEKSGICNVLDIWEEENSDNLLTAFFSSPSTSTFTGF
Sequence of CDC7/DBF4 (Cell division cycle 7-related protein kinase/Activator of S phase kinase) (O00311 whole entry): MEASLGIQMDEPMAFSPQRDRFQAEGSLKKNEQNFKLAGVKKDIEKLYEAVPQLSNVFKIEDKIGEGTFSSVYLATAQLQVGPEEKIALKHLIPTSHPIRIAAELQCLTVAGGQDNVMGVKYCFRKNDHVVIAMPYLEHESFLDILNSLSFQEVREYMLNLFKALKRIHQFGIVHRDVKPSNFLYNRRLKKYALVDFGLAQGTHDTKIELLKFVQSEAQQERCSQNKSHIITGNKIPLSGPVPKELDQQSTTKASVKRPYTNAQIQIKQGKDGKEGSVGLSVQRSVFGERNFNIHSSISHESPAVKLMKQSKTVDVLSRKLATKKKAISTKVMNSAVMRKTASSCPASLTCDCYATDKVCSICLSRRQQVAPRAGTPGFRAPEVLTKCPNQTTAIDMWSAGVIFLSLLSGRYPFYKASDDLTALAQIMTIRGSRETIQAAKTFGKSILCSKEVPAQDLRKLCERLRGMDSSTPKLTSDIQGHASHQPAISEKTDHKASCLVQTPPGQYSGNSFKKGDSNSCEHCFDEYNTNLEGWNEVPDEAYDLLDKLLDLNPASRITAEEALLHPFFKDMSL

In the case of `Cn1cc(-c2cc3c(s2)C2(CCCCC2)CNC3=O)cn1`, the IC50 (commonly the midpoint of a concentration-inhibition curve) is above 25000 nM.
The value for `CC(=O)Nc1cc(-c2cc3c(s2)C2(CCCCC2)CNC3=O)ccn1` was 41 nM; that for `O=C1NCCc2sc(-c3ccncc3)cc21` was 33 nM.
In turn, `O=C1CCC2(CCCCC2)c2sc(-c3ccncc3)cc21` yielded an IC50 of 9 nM.
Then `O=C1NCC2(CCCCC2)c2sc(-c3cn[nH]c3)cc21`, with 1 nM; and `O=C1NCC2(CCCCC2)c2sc(-c3ncnc4[nH]cnc34)cc21`, with 1 nM.
Then `CNC(=O)c1cc(-c2cc3c(s2)C2(CCCCC2)CNC3=O)ccn1`, with above 25000 nM; and `O=C1NCC2(CCCCC2)c2sc(-c3cc[nH]n3)cc21`, with 370 nM; and `CC(=O)Nc1cccc(-c2cc3c(s2)C2(CCCCC2)CNC3=O)c1`, with above 25000 nM.
The value for `O=C1NCC2(CCCCC2)c2sc(-c3cccnc3)cc21` was 5100 nM.
Consider `Nc1cc(-c2cc3c(s2)C2(CCCCC2)CNC3=O)ccn1`, for which the IC50 amounted to 8 nM.
For `Nc1cc(-c2cc3c(s2)C2(CCCCC2)CCC3=O)ccn1`, the IC50 amounted to 33 nM.
The value for `O=C1CCC2(CCCCC2)c2sc(-c3cn[nH]c3)cc21` was 1 nM; that for `O=C1NCC2(CCCCC2)c2sc(-c3ccncc3)cc21` was below 1 nM.
With `O=C1NCC2(CCCCC2)c2sc(Cl)cc21`, the IC50 was above 25000 nM.

Source of the values: ChEMBL document CHEMBL2016517, “3D Pharmacophore Model-Assisted Discovery of Novel CDC7 Inhibitors” (ACS Med Chem Lett, 2011).
